Measurements: patent US20140154717A1, “METHOD FOR DETECTING CANCER CELL USING FLUORESCENTLY LABELED L-GLUCOSE DERIVATIVE, AND CANCER CELL-IMAGING AGENT COMPRISING FLUORESCENTLY LABELED L-GLUCOSE DERIVATIVE” (priority 2011, published 2014)

Tested on: mouse insulinoma cells (MIN6)
Assay: Confocal imaging of tumor cell clusters composed of mouse insulinoma cells (MIN6) using 2-NBDLG
Format: cell-based
Details: 100 μM, perfusion 3 minutes, just after washout; MIN6 cultured 11 days
Procedure: Culture medium containing MIN6 cells suspended at a proportion of 10×10^4 cells/mL was dispersed by pipetting, and dropped on a glass cover slip, then, allowed to stand still in a 5% CO2 incubator for 20 minutes to cause adhesion to the glass surface, and 3 mL of the culture medium was added, and the cells were cultured. The half quantity of the culture medium was exchanged every two days.
MIN6 cells (provided by Professor Miyazaki Junichi, Osaka University, and the passage number was six to nine times) were seeded on a 10 cm petri dish, allowed to stand still in a CO2 incubator, and cultured at 37° C. The half quantity of the culture medium was exchanged every two days.
High glucose-containing Dulbecco's modified Eagle's Medium (DMEM-HG) (SIGMA #D5648) (13.4 g), NaHCO3 (Wako, No. 191-01305) (3.4 g) and 2-Mercaptoethanol (Wako, No. 135-14352) (5 μL) were dissolved in 1 liter of ultra-pure water (Mili Q), and equilibrated with ambient air. Next, pH was adjusted to 7.3 to 7.35 using 1N HCl in a CO2 incubator at 37° C., and sterilized by suction filtration. Directly before use, Hyclone Fetal Bovine Serum (Cat# SH30070.03) was added so as to give a final concentration of 10% and penicillin-streptomycin (Gibco #15140) was added so as to give a final concentration of 0.5%.
MIN6 cells were prepared with culture medium so that the cell number was 10×10^4 cells/mL.
The whole quantity of one vial of 0.5 mg 2-NBDLG was dissolved in 14. 6 mL of a HEPES solution for image acquisition, for preparing a 2-NBDLG solution having a final concentration of 100 μM.
NaCl 131.8 mM, KCl 4.75 mM, KH2PO4 1.19 mM, MgCl2 1.2 mM, CaCl2 1 mM, NaHCO3 5.0 mM, D-Glucose 2.8 mM, HEPES 10 mM (adjusted to pH 7.35 with 1M NaOH). For inhibiting entrance and elimination of fluorescently labeled glucose via a gap junction/hemichannel, 0.1 mM Carbenoxolone (SIGMA #C4790) was added. The HEPES solution for image acquisition was used as a solution for preparing a 2-NBDLG solution and as a solution for preparing a 2-NBDLG/2-TRLG solution. […]

With `O=[N+]([O-])c1ccc(NC2C(O)OC(CO)[C@H](O)C2O)c2nonc12` (stereo partly drawn) [2-NBDLG, 2-[N-(7-Nitrobenz-2-oxa-1,3-diazol-4-yl)amino]-2-deoxy-L-glucose] the “uptake into cell cluster (a), developed cluster with abnormal nuclei” value was “intense uptake”, the “uptake into cell cluster (b), normal nucleus morphology” value was “only a slight uptake” and the “uptake into cell cluster (c), two-dimensionally accumulated planar cluster” value was “almost no increase in the fluorescence intensity”.
